From US6710090B2, “Inhibitory or blocking agents of molecular generating and/or inducing functions” (priority 1994, dated 2004) come the findings set out here.

One data set relates to HeLa cells. Kind of data set: Anti-cancer effect, cultured HeLa cells. The format is cell-based. Particulars: compared with keratinocytes treated with Yoshixol.
In data set [1] the test system is chicken myeloblastosis virus (AMV) reverse transcriptase. Kind of data set: AMV reverse transcriptase, amount of cDNA synthesis. The format is biochemical. The following applies: 0.01 μl of Yoshixol added to 25 units AMV reverse transcriptase, RNA 5 μg, PCR. The procedure: In order to investigate the effect on virus, changes in structure of single strand DNA, double strand DNA and mRNA of E. coli bacteriophage (1 ml of 1 mol solution), which were prepared as non-treated sample and treated sample with 4 μl of Yoshixol, were observed by scanning and transmission electron microscopes. In addition, according a general bacteriological technique, changes in proliferation and in morphological aspect (by scanning and transmission electron microscopes) of E. Coli, which was infected by single strand DNA, double strand DNA or mRNA, were investigated before and after treatment of each phage with Yoshixol. As treated samples, 4 μl of Yoshixol was added in 1 ml of each phage solution which concentration was adjusted to 1 mol. […] In addition, an effect of Yoshixol on chicken myeloblastosis virus (AMV) reverse transcriptase (Gibco Co. Getesburg, Md., USA) was investigated by measuring amount of cDNA synthesis, which was amplified by PCR of RNA(5 μg) and AMV reverse transcriptase (25 units). As treated group, 0.01 μl of Yoshixol was added to 25 units sample of the AMV reverse transcriptase. Thus, the expected production of cDNA was obtained in the non-treated group, however, the amount of cDNA production decreased to 10% of the expected one when Yoshixol was treated (referred FIG. 15).

The test system of the next data set is nitric oxide (NO). Kind of data set: Involvement of nitric oxide, NG-methyl-L-arginine (NMLA) as blocking agent. Particulars: 4 μl of NMLA (1 mol) added; compared to Yoshixol alone. The procedure:
Recent interest has been focused recently in effects of nitric oxide (NO) which is generated in body. Such effects are anticancer effect, bactericidal effect, inhibitory effect of antigen-antibody reaction and cardiovascular effect. […] When 4 μl of NMLA (1 mol) was added in the each test sample with and without Yoshixol, blood aggregation effect, effect of fibrin formation and bactericidal effect of Yoshixol were decreased by 10-20% comparing to effect of Yoshixol alone.

The target in a further data set is thrombin (Homo sapiens, UniProt P00734). The data set is described as follows: Thrombin treated with Yoshixol added in fibrinogen, thromboelastgram. In kind it is biochemical. Also on record: thrombin (Behlinger Manheim-Yamanouchi Co.) was investigated by electrophoresis; purchased Behlinger Manheim-Yamanouchi Co. The procedure: (§1) Effect of Yoshixol (4 μl) on human blood coagulation and fibrin formation (thrombin was added to fibrinogen) were investigated by thromboelastgram (Hellige GMBH, West Germany). Also, a magnitude of fibrin network which is formed at human blood coagulation was investigated by a scanning electron microscopy. Coagulation of human blood without treatment with Yoshixol was started within 1-2 min so that maximum level of coagulation occurred approximately within 15 min, followed by gradual decrease due to activation of fibrinolytic system. Immediately after thrombin is added on fibrinogen, viscosity of the sample started to increase, reached to a maximum level within 5-6 minutes. This maximum level was maintained for periods of 6 hours which was observed (referred FIG. 3a). However, when Yoshixol (4 μl) was added in 0.4 ml of whole blood or fibrinogen (160 mg/dl), onset time of blood coagulation and fibrin formation was delayed to 4-5 minutes and maximum aggregation time was occurred within 6-8 minutes. Maximum level of coagulation after the treatment was inhibited by 90% of control which level was maintained over 6 hours of investigation (referred FIG. 3b).

The test system of data set [2] is human defibrinized serum, bovine albumin, human fibrinogen, myoglobin, anti-A blood type serum and anti-B blood type serum. Kind of data set: Primary structure of proteins, electrophoretic analysis of non-SDS wide page. Particulars: 1 ml protein solutions, Yoshixol 4 μl, heated denaturation. The format is biochemical. The procedure: Changes in molecular weight composition of the following macromolecular proteins (1 mole solution) before and after treatment with Yoshixol (4 μl) were investigated after heated denaturation by electrophoretic analysis of non-SDS wide page. The used macromolecules proteins solutions of 1 ml are human defibrinized serum, bovine albumin, human fibrinogen, myoglobin, anti-A blood type serum and anti-B blood type serum (Green Cross Co.). Even after treatment with Yoshixol, distribution of molecular weights on electrophoretic analysis was identical to that of the macromolecules proteins which is not treated (referred FIG. 7).

Data set [3] concerns human blood coagulation and fibrin formation. The data set is described as follows: Human blood coagulation and fibrin formation, thromboelastgram and scanning electron microscopy. In kind it is biochemical. The procedure:
as §1

In the next data set the test system is human blood serum. The data set is described as follows: Composition of amino acids in human blood serum. The format is biochemical. The following applies: Yoshixol 4 μl. The procedure:
Changes in composition of amino acids were analyzed by use of 1 ml of human blood serum, 1 ml of human fibrinogen (concentration of 160 mg/dl), 1 ml of human thrombin before and after treatment with Yoshixol (4 μl). The total amino acids in the human blood serum which was treated with Yoshixol decreased by 41%. And, ratio of each composition was altered after the treatment so that as an example the concentration of phosphoserine increased about 20 times which level was from 7.2 picomole to 164.8 picomole.

The subject of the next data set is thrombus. Kind of data set: Thrombolytic effect on thrombus, phase contrasted microscopy. In kind it is cell-based, human or canine. The procedure: In order to investigate a thrombolytic effect of Yoshixol on thrombus, 1 ml of human blood or canine blood were sampled by a syringe and transferred into the Petori-schale (grainer lab. GmHB) so that thrombus formation and rouleaux formation were observed under a phase contrasted microscopy (IMT-2, Olympus Co.). Then, 1 μl of Yoshixol was added in the blood sample when all visual fields could not be discriminated as an normal individual erythrocyte by thrombus formation. Then, a thrombolytic process of the thrombus was investigated and the process was recorded to a video tape via a collar video camera (CCD-IRIS, Sony Co.). The video pictures were analyzed as a liquid phenomena by an original software of dynamic state analysis. […] And, while original form of erythrocyte was recovered, each erythrocyte was marvelously dispersed from thrombus. […] And, Yoshixol has a potential to improve circulatory hindrance which is disturbed physiological role on original blood such as fluidability by being solidability. Yoshixol can apply as thrombolytic agents as well as inhibitory agents for thrombus formation.

Data set [4] relates to human blood (erythrocytes). Kind of data set: Preservative effect on organs and tissues, stored human blood. The format is cell-based. Particulars: 5 ml human blood, 4 μl of Yoshixol. The procedure: After sampling 5 ml of human blood from a cubital vein, the blood sample was replaced into the vacuum tube with 10 ml capacity and was mixed in a gentle. The vacuum tubes were divided by two group; one group is nontreated and another treated with 4 μl of Yoshixol. Then, changes in morphological aspects of blood, which were stored at room temperature, were observed by a transmission type and scanning electron microscopes at 30 minutes, one hour and 1 month after the sampling. […] It was existed likely as a destroyed and aggregated mass. […] Many stomatocytes (lip-like erythrocyte) and echinocyte which is appeared at a lack of pyruvate kinase were observed.

Take `C=C1CC(C)(C)C=CC1=O` [Yoshixol, 4,4-dimethyl-6-methylene-2-cyclohexen-1-one]: the “structure between cells and cellular aspect” value in the data set on HeLa cells is listed as “observations similar to the above were found”. Also, the “amount of cDNA production, of the expected one” value in data set [1] is reported as 10%. Besides, the “decrease of blood aggregation effect, effect of fibrin formation and bactericidal effect of Yoshixol” value in the data set with nitric oxide (NO) is given as 10-20%. Further, the “aggregation reaction on thromboelastgram” value on thrombin is “any of aggregation reaction was not be found”. The “distribution of molecular weights on electrophoretic analysis versus not treated” value in data set [2] is “identical”. In data set [3] (Yoshixol 4 μl in 0.4 ml whole blood or fibrinogen (160 mg/dl)), this molecule showed a maximum aggregation time of 6 to 8 min. Moreover, the “onset time of blood coagulation and fibrin formation” value in data set [3] (Yoshixol 4 μl in 0.4 ml whole blood or fibrinogen (160 mg/dl), untreated blood 1-2 min) lay within 4 to 5 min. The “inhibition of maximum level of coagulation” value in [3] (Yoshixol 4 μl in 0.4 ml, level maintained over 6 hours) is given as 90 % of control. Further, the “rouleaux formation of erythrocyte and formation of fibrin net” value in data set [3] (morphological investigation, scanning electron microscopy) is recorded as “did not occur”. In addition, in the data set with human blood serum (1 ml human blood serum), the “decrease of total amino acids in human blood serum” value is 41%. In the data set on human blood serum (human blood serum), the “increase of concentration of phosphoserine” value is “about 20 times”. Besides, the “concentration of phosphoserine after treatment” value with human blood serum (human blood serum, before 7.2 picomole) turned out to be 164.8 picomole. Moreover, the “hemolysis due to swelling and rupturing each erythrocyte” value in the data set with thrombus (1 μl of Yoshixol in 1 ml blood sample) was “did not occur”. In addition, in the data set with thrombus (1 μl of Yoshixol in 1 ml blood sample with thrombus), the “thrombus after adding Yoshixol” value was “completely individualized to each erythrocyte”. Besides, in data set [4] (room temperature), the aggregation of erythrocytes result is “did not show an aggregation with fibrin networks”. In addition, the “cell membrane and intracellular organella of erythrocytes” value in [4] (stored at room temperature) is on record as “preserved normally over 1 month”.
